One data set concerns the target T1, hCA I (Homo sapiens, UniProt P00915).
T1 construct: made in house
In words: stopped flow CO2 hydrase assay, CA inhibition. Type of data set: biochemical. Conditions: recombinant enzyme, pH 7.4, 10 min pre-incubation, from 3 different assays. On the procedure: (§1) An SX.18 MV-R Applied Photophysics (Oxford, UK) stopped-flow instrument has been used to assay the catalytic/inhibition of various CA isozymes. […] Stock solutions of inhibitors were prepared at a concentration of 10 mM (in DMSO-water 1:1, v/v) and dilutions up to 0.01 nM done with the assay buffer mentioned above. […] Inhibitor and enzyme solutions were pre-incubated together for 10 min at room temperature prior to assay, in order to allow for the formation of the E-I complex. […] The inhibition constants were obtained by nonlinear least-squares methods using the Cheng-Prusoff equation, as reported earlier, and represent the mean from at least three different determinations.

The next data set deals with T2, hCA II (Homo sapiens, UniProt P00918).
T2 construct: made in house
In words: stopped flow CO2 hydrase assay, CA inhibition. The format is biochemical. As to conditions: recombinant enzyme, pH 7.4, 10 min pre-incubation, from 3 different assays. The protocol:
as §1

The next data set has as its target T3, hCA IX (Homo sapiens, UniProt Q16790).
T3 construct: made in house
In words: stopped flow CO2 hydrase assay, CA inhibition. Type of data set: biochemical. Conditions: recombinant enzyme, pH 7.4, 10 min pre-incubation, from 3 different assays. The protocol:
as §1

For another data set, the target named is T4, hCA XII (Homo sapiens, UniProt O43570).
T4 construct: made in house
T4 sequence (O43570 25-354): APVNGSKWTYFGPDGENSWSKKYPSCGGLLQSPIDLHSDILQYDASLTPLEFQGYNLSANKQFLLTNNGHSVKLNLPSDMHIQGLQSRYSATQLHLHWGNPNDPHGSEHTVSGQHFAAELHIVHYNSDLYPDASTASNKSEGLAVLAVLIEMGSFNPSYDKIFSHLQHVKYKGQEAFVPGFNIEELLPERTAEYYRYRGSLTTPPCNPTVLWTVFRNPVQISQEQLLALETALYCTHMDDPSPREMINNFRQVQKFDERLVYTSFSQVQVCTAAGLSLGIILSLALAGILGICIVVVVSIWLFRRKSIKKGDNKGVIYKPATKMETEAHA
In words: stopped flow CO2 hydrase assay, CA inhibition. The format is biochemical. As to conditions: recombinant enzyme, pH 7.4, 10 min pre-incubation, from 3 different assays. The protocol: as §1

T1 sequence (P00915 whole entry): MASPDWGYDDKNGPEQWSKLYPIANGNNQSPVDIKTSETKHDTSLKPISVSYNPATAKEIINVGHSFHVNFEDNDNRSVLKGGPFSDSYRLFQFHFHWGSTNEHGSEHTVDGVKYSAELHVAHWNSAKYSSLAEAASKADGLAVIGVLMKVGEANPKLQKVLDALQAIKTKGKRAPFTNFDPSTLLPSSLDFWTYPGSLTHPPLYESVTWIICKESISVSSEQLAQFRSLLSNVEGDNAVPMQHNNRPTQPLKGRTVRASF

For `NS(=O)(=O)c1ccc(NC(=O)Nc2ccc(NC(=O)Nc3ccc(S(N)(=O)=O)cc3)cc2)cc1` [Compound 8, 4,4'-(((1,4-Phenylenebis(azanediyl))bis(carbonyl))bis(azanediyl))dibenzenesulfonamide], the melting point was over 300 °C. Moreover, the Ki on hCA I is 7.28 µM. Besides, the Ki at hCA II is 680 nM. Moreover, the Ki on hCA IX was found to be 57.5 nM. For the same compound, the Ki on hCA XII worked out at 37.3 nM.

`NS(=O)(=O)c1ccc(NC(=O)Nc2ccc(Cc3ccc(NC(=O)Nc4ccc(S(N)(=O)=O)cc4)cc3)cc2)cc1` [Compound 9, 4,4'-((((Methylenebis(4,1-phenylene))bis(azanediyl))bis(carbonyl))bis(azanediyl))dibenzenesulfonamide] yielded a melting point of 293 to 294 °C. The Ki at hCA I came to 6.28 µM. On hCA II, the Ki was 484 nM. At hCA IX, the Ki was 835 nM. Besides, the inhibition constant (Ki) at hCA XII was found to be 429 nM.

`Cc1cc(-c2ccc(NC(=O)Nc3ccc(S(N)(=O)=O)cc3)c(C)c2)ccc1NC(=O)Nc1ccc(S(N)(=O)=O)cc1` [Compound 10, 4,4'-((((3,3'-Dimethyl-[1,1'-biphenyl]-4,4'-diyl)bis(azanediyl))bis(carbonyl))bis(azanediyl))dibenzenesulfonamide] yielded a melting point of over 300 °C. In addition, the Ki at hCA I came out at 0.947 µM. For the same compound, the Ki at hCA II came out at 302 nM. Moreover, on hCA IX, the Ki is 86.4 nM. Also, the inhibition constant (Ki) on hCA XII turned out to be 52.3 nM.

For the compound `Cc1ccc(NC(=O)Nc2ccc(S(N)(=O)=O)cc2)cc1NC(=O)Nc1ccc(S(N)(=O)=O)cc1` [Compound 11, 4,4'-((((4-Methyl-1,3-phenylene)bis(azanediyl))bis(carbonyl))bis(azanediyl))dibenzenesulfonamide], the melting point lay within 279 to 281 °C. Moreover, on hCA I, the Ki was 0.0681 µM. Further, the inhibition constant (Ki) at hCA II was 4.4 nM. The Ki on hCA IX is 6.73 nM. Further, on hCA XII, the inhibition constant (Ki) is 7.39 nM.

For `NS(=O)(=O)c1cccc(NC(=O)Nc2ccc(NC(=O)Nc3cccc(S(N)(=O)=O)c3)cc2)c1` [Compound 12, 3,3'-(((1,4-Phenylenebis(azanediyl))bis(carbonyl))bis(azanediyl))dibenzenesulfonamide], the melting point was over 300 °C. The Ki on hCA I was 6.52 µM. Moreover, the Ki at hCA II worked out at 550 nM. Moreover, the Ki at hCA IX worked out at 63.8 nM. At hCA XII, the inhibition constant Ki was 63.2 nM.

Take `NS(=O)(=O)c1cccc(NC(=O)Nc2ccc(Cc3ccc(NC(=O)Nc4cccc(S(N)(=O)=O)c4)cc3)cc2)c1` [Compound 13, 3,3'-((((Methylenebis(4,1-phenylene))bis(azanediyl))bis(carbonyl))bis(azanediyl))dibenzenesulfonamide]: the melting point lay in the range of 293 to 295 °C. Moreover, the Ki on hCA I was determined as 9.17 µM. For the same compound, the Ki on hCA II was found to be 306 nM. The Ki on hCA IX was determined as 78.7 nM. The inhibitory constant (Ki) on hCA XII stood at 27.7 nM.

For the compound `Cc1cc(-c2ccc(NC(=O)Nc3cccc(S(N)(=O)=O)c3)c(C)c2)ccc1NC(=O)Nc1cccc(S(N)(=O)=O)c1` [Compound 14, 3,3'-((((3,3'-Dimethyl-[1,1'-biphenyl]-4,4'-diyl)bis(azanediyl))bis(carbonyl))bis(azanediyl))dibenzenesulfonamide], the melting point was over 300 °C. The Ki on hCA I was 0.688 µM. Further, the Ki on hCA II came to 637 nM. In addition, the inhibitory constant (Ki) on hCA IX was 578 nM. At hCA XII, the inhibition constant Ki is 67.9 nM.

Consider `Cc1ccc(NC(=O)Nc2cccc(S(N)(=O)=O)c2)cc1NC(=O)Nc1cccc(S(N)(=O)=O)c1` [Compound 15, 3,3'-((((4-Methyl-1,3-phenylene)bis(azanediyl))bis(carbonyl))bis(azanediyl))dibenzenesulfonamide], for which the melting point fell in the range of 233 to 234 °C. The Ki at hCA I turned out to be 5 µM. In addition, the Ki at hCA II was 80.8 nM. Besides, at hCA IX, the Ki is 81.1 nM. The inhibition constant (Ki) at hCA XII turned out to be 67.1 nM.

In turn, `NS(=O)(=O)c1ccc(CCNC(=O)Nc2ccc(NC(=O)NCCc3ccc(S(N)(=O)=O)cc3)cc2)cc1` [Compound 16, 4,4'-((((1,4-Phenylenebis(azanediyl))bis(carbonyl))bis(azanediyl))bis(ethane-2,1-diyl))dibenzenesulfonamide] registered a melting point of over 300 °C. Also, the Ki at hCA I is 2.91 µM. For the same compound, at hCA II, the Ki amounted to 424 nM. In addition, the Ki at hCA IX turned out to be 68.7 nM. Further, the Ki on hCA XII turned out to be 82.8 nM.

Compound `NS(=O)(=O)c1ccc(CCNC(=O)Nc2ccc(Cc3ccc(NC(=O)NCCc4ccc(S(N)(=O)=O)cc4)cc3)cc2)cc1` [Compound 17, 4,4'-(((((Methylenebis(4,1-phenylene))bis(azanediyl))bis(carbonyl))bis(azanediyl))bis(ethane-2,1-diyl))dibenzenesulfonamide] gave a melting point of 270 to 272 °C. Moreover, the Ki at hCA I turned out to be 5.35 µM. The Ki at hCA II was found to be 792 nM. For the same compound, the Ki at hCA IX was 91.9 nM. The Ki at hCA XII amounted to 33.6 nM.

Consider `Cc1cc(-c2ccc(NC(=O)NCCc3ccc(S(N)(=O)=O)cc3)c(C)c2)ccc1NC(=O)NCCc1ccc(S(N)(=O)=O)cc1` [Compound 18, 4,4'-(((((3,3'-Dimethyl-[1,1'-biphenyl]-4,4'-diyl)bis(azanediyl))bis(carbonyl))bis(azanediyl))bis(ethane-2,1-diyl))dibenzenesulfonamide], for which the melting point was over 300 °C. For the same compound, at hCA I, the Ki worked out at 8.31 µM. Moreover, on hCA II, the Ki was 604 nM. Besides, the Ki on hCA IX was 93.7 nM. The Ki at hCA XII worked out at 60.3 nM.

`Cc1ccc(NC(=O)NCCc2ccc(S(N)(=O)=O)cc2)cc1NC(=O)NCCc1ccc(S(N)(=O)=O)cc1` [Compound 19, 4,4'-(((((4-Methyl-1,3-phenylene)bis(azanediyl))bis(carbonyl))bis(azanediyl))bis(ethane-2,1-diyl))dibenzenesulfonamide] had a melting point of 245 to 247 °C. Further, the Ki on hCA I was found to be 0.0954 µM. On hCA II, the inhibition constant Ki was determined as 25.8 nM. Besides, the Ki on hCA IX came to 8.92 nM. In addition, the Ki on hCA XII turned out to be 5.02 nM.

In general, Ki refers to a dissociation constant, usually derived from enzyme kinetics or from competition with a known ligand. In general, melting point refers to the temperature of the solid-liquid transition.

Values taken from publication PMC9987750, “Potent carbonic anhydrase I, II, IX and XII inhibition activity of novel primary benzenesulfonamides incorporating bis-ureido moieties” (Journal of Enzyme Inhibition and Medicinal Chemistry, 2023).
